According to patent US20210246144A1, “A SET OF MITOCHONDRIA-TARGETED COMPOUNDS” (MITOTECH S.A., priority 2017, published 2021):

Key:
[1] = tested on: mitochondrial membrane potential; assay: mitochondrial uncoupling (protonophore), decrease of mitochondrial membrane potential; conditions: causes decrease in mitochondrial membrane potential and reduction of ROS production by mitochondria
isolated mitochondria = conditions: cited from earlier work
[2] = tested on: isolated mitochondria or live cultures of human cells; conditions: cited from earlier work
[3] = relative to the antioxidant concentrations; cited from earlier work
[4] = fluorescent uncoupler activity
Protocol: (§1) Dibromoalkanes (60, 61) were heated with (triphenyl)phosphine in benzene at 80° C., and the obtained bromoalkyl(triphenyl)phosphonium bromides (62, 63) were reacted with fluorescein in the presence of sodium carbonate. As a result, bromides of {4-[2-(6-hydroxy-3-oxo-3H-xanthen-9-yl)benzoyloxy]butyl}(triphenyl)phosphonium (64) and {10-[2-(6-hydroxy-3-oxo-3H-xanthen-9-yl)benzoyloxy]decyl}(triphenyl)phosphonium (65).

[5] = neuroprotective and nephroprotective properties
Protocol: as §1

CCCCCCCCCCOC(=O)c1ccccc1-c1c2cc(C)/c(=N/CC)cc-2oc2cc(NCC)c(C)cc12 [Compound 28, decyl 2-[(3E)-6-(ethylamino)-3-(ethylimino)-2,7-dimethyl-3H-xanthen-9-yl]benzoate]
mitochondrial uncoupling (protonophore) activity [1]: soft cationic mitochondrial uncouplers (protonophores)

CCCCCCCCCCCCOC(=O)c1ccccc1-c1c2cc(C)/c(=N/CC)cc-2oc2cc(NCC)c(C)cc12 [Compound 29, dodecyl 2-[(3E)-6-(ethylamino)-3-(ethylimino)-2,7-dimethyl-3H-xanthen-9-yl]benzoate]
mitochondrial uncoupling (protonophore) activity [1]: soft cationic mitochondrial uncouplers (protonophores)

COc1ccc2c(CC(=O)OCCCCCCCCCC3=CC(=O)C(C)=C(C)C3=O)c3[n+](cc2c1OC)CCc1cc2c(cc1-3)OCO2 [SkQBerb, 21-(2-{[9-(4,5-dimethyl-3,6-dioxocyclohexa-1,4-dien-1-yl)nonyl]oxy}-2-oxoethyl)-16,17-dimethoxy-5,7-dioxa-13λ^5-azapentacyclo[11.8.0.0^21.0.0^4.8.0^15.20]henicosa-1(21),2,4(8),9,13,15(20),16,18-octaen-13-ylium]
inhibition of lipid peroxidation (isolated mitochondria): inhibit lipid peroxidation in isolated mitochondria in nanomolar concentrations
accumulation in isolated mitochondria or live human cells [2]: accumulate in isolated mitochondria or live cultures of human cells
prooxidant effect [3]: manifested at significantly higher concentrations

COc1cc2c(cc1OC)-c1c(CC(=O)OCCCCCCCCCC3=CC(=O)C(C)=C(C)C3=O)c3ccc(OC)c(OC)c3c[n+]1CC2 [SkQPalm, 13-(2-{[9-(4,5-dimethyl-3,6-dioxocyclohexa-1,4-dien-1-yl)nonyl]oxy}-2-oxoethyl)-3,4,10,11-tetramethoxy-7,8-dihydro-6λ^5-azatetraphen-6-ylium]
inhibition of lipid peroxidation (isolated mitochondria): inhibit lipid peroxidation in isolated mitochondria in nanomolar concentrations
accumulation in isolated mitochondria or live human cells [2]: accumulate in isolated mitochondria or live cultures of human cells
prooxidant effect [3]: manifested at significantly higher concentrations

CC/N=c1/cc2oc3cc(NCC)c(C)cc3c(-c3ccccc3C(=O)OCCCCCCCCCCC3=CC(=O)C(C)=C(C)C3=O)c-2cc1C.Cl [SkQR1]
mitochondrial uncoupling (protonophore) activity [1]: soft cationic mitochondrial uncouplers (protonophores)

{4-[2-(6-hydroxy-3-oxo-3H-xanthen-9-yl)benzoyloxy]butyl}(triphenyl)phosphonium [Compound 64]
uncoupler activity [4]: fluorescent uncouplers
neuroprotective and nephroprotective properties [5]: neuroprotective and nephroprotective properties

{10-[2-(6-hydroxy-3-oxo-3H-xanthen-9-yl)benzoyloxy]decyl}(triphenyl)phosphonium [Compound 65]
uncoupler activity [4]: fluorescent uncouplers
neuroprotective and nephroprotective properties [5]: neuroprotective and nephroprotective properties
